Experimental data reported in publication PMC9457600, “Synthesis, Leishmanicidal, Trypanocidal, Antiproliferative Assay and Apoptotic Induction of (2-Phenoxypyridin-3-yl)naphthalene-1(2H)-one Derivatives” (Molecules, 2022).

Experiments:
K562 cell line = test: Annexin V-FITC/PI flow cytometry apoptosis assay K562; assay type: cell-based, human; conditions: 24 h
Procedure: (§1) Cell death was assessed after 24 h incubation with compounds 18 and 22. Apoptosis was analyzed by flow cytometry using annexin V-FITC and propidium iodide (PI). Early apoptosis was defined by annexin V-FITC expression and, necrosis by PI expression, late apoptosis by coexpression of annexin V/PI. Doxorubicin and quercetin were used as positive controls. The results of a typical flow cytometry analysis of both compounds are illustrated in Figure 2 and Figure 3. An increase in early apoptosis and late apoptosis was observed; necrosis was less predominant. The results are summarized in Tables S1 and S2 (Supplementary Materials). The expression of annexin V was different depending on the compound used. K562, A549 cell lines were treated as described by the manufacturer (Santa Cruz Biotechnology), washed, and resuspended in annexin V binding buffer (0.01 M HEPES, 0.14 M NaCl, and 2.5 mM CaCl2) with the subsequent incubation of annexinV-FITC and then PI. An Epics XL cytometer (Beckman Coulter, Indianapolis, IN, USA) was used for the analysis. Untreated cells were the negative controls, and doxorubicin (Dox) (1 μM), and quercetin (QC) (50 μM) were the positive controls. Early apoptosis refers to annexin V expression, late apoptosis, the coexpression of annexin V and PI, and necrosis the sole expression of PI. […] The experiments were performed as described before. To avoid the unwanted effects of DMSO, the concentrations of the compounds were never higher than 100 μM.

U2OS = test: MTS antiproliferative assay U2OS; assay type: cell-based; conditions: Homo sapiens, 72 h of incubation
Description: (§2) The cell lines used were acquired from the American Type Culture Collection (ATCC), CCRF-CEM (T lymphoblastic leukemia), K562 ([…]), U2OS (osteosarcoma), HCT116 (colon carcinoma), A549 (lung adenocarcinoma) and HCT116p53−/− (HCT116 cell line mutated in p53) Horizon Discovery Ltd., (Waterbeach, Cambridge, United Kingdom).
(§3) In our laboratory, IMTM, we generated the daunorubicin-resistant subline of CCRF-CEM cells (CEM-DNR bulk) and paclitaxel-resistant subline K562-TAX, as described previously. […] Both ABC transporters are involved in drug resistance. As a control, human fibroblasts MRC-5 and BJ cell lines were used. […] Adherent cells were passaged using PBS containing 0.25% trypsin plus 0.01% EDTA (ethylenediamine tetraacetic acid) every 2–3 days.
(§4) The antiproliferative activity of compounds was determined using a standard 3-(4,5-dimethylthiazol-2yl)-5-(3-carboxymethoxyphenyl)-2-(4-sulfophenyl)-2H-tetrazolium (MTS) reduction assay on a robotic high throughput screening platform (HighResBio, Boston, MA, USA) following treatment of cells for 3–7 days. The IC50 values were calculated from the appropriate dose–response curves with Dotmatics software (San Diego, CA, USA).

CEM-DNR = test: MTS antiproliferative assay CEM-DNR; assay type: cell-based; conditions: Homo sapiens, 72 h of incubation, daunorubicin-resistant
Description: as §2, §3, §4

K562-TAX = test: MTS antiproliferative assay K562-TAX; assay type: cell-based, human; conditions: 72 h of incubation, paclitaxel-resistant
Description: as §2, §3, §4

[1] = system: promastigotes of Leishmania (V.) braziliensis strain MHOM/CO/87/UA301; test: MTT viability of L. braziliensis promastigotes; assay type: cell-based; conditions: 72 h, promastigotes;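 also: promastigote proliferation in 96-well plates, MTT reduction read at 570 nm, EC50 derived from growth curves, cytotoxicity CC50 likewise by MTT in BMDM and VERO cells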
Procedure: Promastigotes of Leishmania (V.) braziliensis strain MHOM/CO/87/UA301 were isolated from footpad lesions in Balb/C mice previously infected. In the process of maintenance and differentiation of the parasites, the LTI medium (tryptose 15 g/L, yeast extract 5 g/L, liver extract 2 g/L, hemin-NaOH 0.02 g/L, glucose 4 g/L, NaCl 9 g/L, KCl 0.4 g/L Na2HPO4, 7.5 g/L at pH 7.4) supplemented with 10% fetal calf serum and maintained at 29 °C was used.
Briefly, 96-well plates were used, where 2 × 10^6 parasites/mL were seeded. A concentration of 50 μM was used for each compound and an incubation time of 96 h at 29 °C. 3-(4,5-dimethylthiazol-2-yl)-2,5-diphenyl tetrazolium bromide (MTT) 1 μg/mL was added and incubated in darkness for 4 h, acidic isopropanol (4N) was added and the plate was read at 570 nm in a spectrophotometer Synergy HT (Biotek). Miltefosine was used as a reference drug. The EC50 calculation of the selected compound was performed using growth curves. Direct counting was used to monitor the proliferation of parasites, three independent experiments were performed for each concentration of the compounds evaluated. The in vitro evaluations of compounds toxicity by MTT in VERO and BMDM cells follow a methodology described above with some modifications [60].

A549 = test: MTS antiproliferative assay A549; assay type: cell-based, human; conditions: 72 h of incubation
Description: as §2, §3, §4

BJ = test: MTS assay on non-malignant BJ; assay type: cell-based; conditions: noncancerous human cell line
Procedure: as §3, §4

HCT116p53−/− = test: MTS antiproliferative assay HCT116p53-/-; assay type: cell-based; conditions: Homo sapiens; 72 h of incubation
Description: as §2, §3, §4

A549 cell line = test: Annexin V-FITC/PI flow cytometry apoptosis assay A549; assay type: cell-based, human; conditions: 24 h
Procedure: as §1

HCT-116 = test: MTS antiproliferative assay HCT116; assay type: cell-based; conditions: Homo sapiens, 72 h of incubation
Description: as §2, §3, §4

MRC-5 = test: MTS assay on non-malignant MRC-5; assay type: cell-based; conditions: MRC5; noncancerous human cell line
Procedure: as §3, §4

CCRF-CEM = test: MTS antiproliferative assay CCRF-CEM; assay type: cell-based; conditions: Homo sapiens, 72 h of incubation
Description: as §2, §3, §4

K562 = test: MTS antiproliferative assay K562; assay type: cell-based, human; conditions: for IC50: 72 h of incubation; for times higher cytotoxicity against K562 than K562-TAX: ratio of IC50 values
Description: as §2, §3, §4

[2] = system: epimastigotes of Trypanosoma cruzi strain MHOM/VE/92/YBM; test: MTT viability of T. cruzi epimastigotes; assay type: cell-based; conditions: Trypanosoma cruzi, 72 h, epimastigotes

| Compound | IC50 (U2OS) [µM] | IC50 (CEM-DNR) [µM] | IC50 (K562-TAX; Homo sapiens, K562-Tax, 72 h) [µM] | EC50 [1] [µM] | IC50 (A549; Homo sapiens, A549, 72 h) [µM] | IC50 (BJ) [µM] | IC50 (HCT116p53−/−) [µM] | IC50 (HCT-116) [µM] | IC50 (MRC-5) [µM] | IC50 (CCRF-CEM) [µM] | IC50 (K562; Homo sapiens, K562, 72 h) [µM] | EC50 [2] [µM] | melting point [°C] | further results |
| --- | --- | --- | --- | --- | --- | --- | --- | --- | --- | --- | --- | --- | --- | --- |
| COc1ccc2c(c1)CC/C(=C\c1cccnc1Oc1ccc(Br)cc1)C2=O [Compound 18, (E)-2-{[2-(4-Bromophenoxy)pyridin-3-yl]methylene}-3,4-dihydro-6-methoxynaphthalen-1(2H)-one] | 7.27 ± 0.68 | 25.7 ± 5.71 | 17.6 ± 7.09 | > 100 | 9.64 to 9.74 | > 50 | > 50 | > 50 | > 50 | 5.97 ± 0.67 | 3.91 to 4.33 | > 100 | – | AV+/IP+ (late apoptosis) (K562 cell line; K562, 5 µM): 2.84%; AV+/IP- (early apoptosis) (K562 cell line; K562, 5 µM): 22.70%; AV-/IP+ (necrosis) (K562 cell line; K562, 5 µM): 0.89%; AV+/IP+ (late apoptosis) (K562 cell line; K562, 10 µM): 89.50%; AV+/IP- (early apoptosis) (K562 cell line; K562, 10 µM): 8.69%; AV-/IP+ (necrosis) (K562 cell line; K562, 10 µM): 1.12%; annexin V-FITC expression (K562 cell line; K562, 10 µM): higher than 50%; IC50 (A549): 9.64 ± 1.71 µM; AV+/IP+ (late apoptosis) (A549 cell line; A549, 10 µM): 3.28%; AV+/IP- (early apoptosis) (A549 cell line; A549, 10 µM): 11.10%; AV-/IP+ (necrosis) (A549 cell line; A549, 10 µM): 3.06%; AV+/IP+ (late apoptosis) (A549 cell line; A549, 25 µM): 21.10%; AV+/IP- (early apoptosis) (A549 cell line; A549, 25 µM): 40.10%; AV-/IP+ (necrosis) (A549 cell line; A549, 25 µM): 3.12%; IC50 (K562): 4.33 ± 0.19 µM; times higher cytotoxicity against K562 than K562-TAX (K562): 4.1 times |
| O=C1/C(=C/c2cccnc2Oc2ccc(Br)cc2)CCc2ccccc21 [Compound 16, (E)-2-{[2-(4-Bromophenoxy)pyridin-3-yl]methylene}-3,4-dihydronaphthalen-1(2H)-one] | 38 ± 4.47 | 34.3 ± 3.61 | 25.6 ± 5.37 | > 100 | 39.7 ± 1.89 | > 50 | 31.5 ± 62.7 | 29.9 ± 4.59 | > 50 | 8.7 ± 2.19 | 23.9 ± 2.28 | > 100 | 138 to 140 | – |
| O=C1/C(=C/c2cccnc2Oc2ccc(F)cc2)CCc2ccccc21 [Compound 12, (E)-2-{[2-(4-Fluorophenoxy)pyridin-3-yl]methylene}-3,4-dihydronaphthalen-1(2H)-one] | 23.2 ± 1.9 | 35.6 ± 4.42 | 32.9 ± 3.19 | > 100 | 28.1 ± 4.86 | > 50 | 26.9 ± 3.49 | 26.4 ± 1.58 | > 50 | 6.7 ± 0.98 | 22.4 ± 2.3 | > 100 | – | – |
| COc1cccc2c1C(=O)c1c(O)c3c(c(O)c1C2=O)C[C@@](O)(C(=O)CO)C[C@@H]3O[C@H]1C[C@H](N)[C@H](O)[C@H](C)O1 [Dox, doxorubicin, reference compound] | – | – | – | – | – | – | – | – | – | – | – | – | – | AV+/IP+ (late apoptosis) (K562 cell line; K562, 1 µM): 29.80%; AV+/IP- (early apoptosis) (K562 cell line; K562, 1 µM): 29.40%; AV-/IP+ (necrosis) (K562 cell line; K562, 1 µM): 19.20%; AV+/IP+ (late apoptosis) (A549 cell line; A549, 1 µM): 33.50%; AV+/IP- (early apoptosis) (A549 cell line; A549, 1 µM): 8.33%; AV-/IP+ (necrosis) (A549 cell line; A549, 1 µM): 29.30% |
| O=c1c(O)c(-c2ccc(O)c(O)c2)oc2cc(O)cc(O)c12 [QC, quercetin, reference compound] | – | – | – | – | – | – | – | – | – | – | – | – | – | AV+/IP+ (late apoptosis) (K562 cell line; K562, 50 µM): 6.25%; AV+/IP- (early apoptosis) (K562 cell line; K562, 50 µM): 34.30%; AV-/IP+ (necrosis) (K562 cell line; K562, 50 µM): 1.57%; AV+/IP+ (late apoptosis) (A549 cell line; A549, 50 µM): 21.70%; AV+/IP- (early apoptosis) (A549 cell line; A549, 50 µM): 26.10%; AV-/IP+ (necrosis) (A549 cell line; A549, 50 µM): 5.60% |
| COc1cccc2c1CC/C(=C\c1cccnc1Oc1ccc(F)cc1)C2=O [Compound 13, (E)-2-{[2-(4-Fluorophenoxy)pyridin-3-yl]methylene}-3,4-dihydro-5-methoxynaphthalen-1(2H)-one] | 21 ± 2.21 | 37.3 ± 3.13 | 39.3 ± 5.4 | > 100 | 28.4 ± 2.14 | > 50 | 23.5 ± 1.5 | 27.2 ± 2.44 | > 50 | 6.07 ± 0.59 | 23.4 ± 2.31 | > 100 | 154 to 156 | – |
| COc1cccc2c1CC/C(=C\c1cccnc1Oc1ccc(Br)cc1)C2=O [Compound 17, (E)-2-{[2-(4-Bromophenoxy)pyridin-3-yl]methylene}-3,4-dihydro-5-methoxynaphthalen-1(2H)-one] | > 50 | 31.7 ± 5.86 | 31.4 ± 6.59 | > 100 | > 50 | > 50 | > 50 | > 50 | > 50 | 12.9 ± 2.07 | 32 ± 3.72 | > 100 | 158 to 160 | – |
| COc1ccc2c(c1)C(=O)/C(=C/c1cccnc1Oc1ccc(F)cc1)CC2 [Compound 15, (E)-2-{[2-(4-Fluorophenoxy)pyridin-3-yl]methylene}-3,4-dihydro-7-methoxynaphthalen-1(2H)-one] | 26.3 ± 4.61 | 23.1 ± 4.38 | 19.7 ± 3.78 | > 100 | 29.1 ± 5 | > 50 | 23.9 ± 2.5 | 30.5 ± 2.34 | > 50 | 9.13 ± 1.38 | 27.7 ± 2.49 | > 100 | 150 to 152 | – |
| COc1ccc2c(c1)CC/C(=C\c1cccnc1Oc1ccc(F)cc1)C2=O [Compound 14, (E)-2-{[2-(4-Fluorophenoxy)pyridin-3-yl]methylene}-3,4-dihydro-6-methoxynaphthalen-1(2H)-one] | > 50 | 41.3 ± 5.67 | > 39.2 | > 100 | 43.6 ± 4.12 | > 50 | > 50 | > 50 | > 50 | 20.1 ± 2.43 | 5.74 ± 3.2 | > 100 | 152 to 154 | IC50 (K562-TAX): 39.2 ± 9.37 µM; times higher cytotoxicity against K562 than K562-TAX (K562): 6.8 times |
